From patent US11976300B2, “Use of water-soluble realgar solid dispersion in preparation of erythroid differentiation inducer for bone marrow hematopoietic stem cells and/or bone marrow hematopoietic progenitor cells” (Institute of Basic Medical Sciences Chinese Academy of …, priority 2018, dated 2024)

Assay: Evaluation of water solubility (appearance of water dispersion)
Assay type: physicochemical
Settings: 1.500 g e-As4S4 of Embodiment 5 or 100 mg r-As4S4 powder in 10 mL ddH2O; FIG. 1
Procedure: 1.500 grams of e-As4S4 of Embodiment 5 and 100 mg of the r-As4S4 powder were weighed and added in 10 mL of double distilled water (ddH2O), respectively to obtain the water dispersion solution of e-As4S4 and r-As4S4.

SMILES: S1[As]2S[As]3S[As]2S[As]13 [r-As4S4, As4S4]
- dissolution in ddH2O (appearance of the suspension): hardly to dissolve in water
